Test results as given in patent US20120010253A1, “Fungicidal compositions comprising Fluopyram and Metrafenone” (BASF SE, priority 2009, published 2012).

What was measured:
Botrytis cinerea = assay: Activity against the grey mold Botrytis cinerea in the microtiter plate test; format: cell-based; conditions: MTP, 405 nm, 7 days after inoculation
Description: The active substances were formulated separately as a stock solution in dimethyl sulfoxide (DMSO) at a concentration of 10 000 ppm. Use Example 1—Activity Against the Grey Mold Botrytis cinerea in the Microtiter Plate Test The stock solutions were mixed according to the ratio, pipetted onto a micro titer plate (MTP) and diluted with water to the stated concentrations. A spore suspension of Botrci cinerea in an aqueous biomalt solution was then added. The plates were placed in a water vapor-saturated chamber at a temperature of 18° C. Using an absorption photometer, the MTPs were measured at 405 nm 7 days after the inoculation. The measured parameters were compared to the growth of the active compound-free control variant (100%) and the fungus-free and active compound-free blank value to determine the relative growth in % of the pathogens in the respective active compounds. These percentages were converted into efficacies. The expected efficacies of active compound mixtures were determined using Colby's formula [R. S. Colby, “Calculating synergistic and antagonistic responses of herbicide combinations”, Weeds 15, 20-22 (1967)] and compared with the observed efficacies.

Pyrenophora teres = assay: Activity against Pyrenophora teres (net blotch on barley) in the microtiter plate test; format: cell-based; conditions: MTP, 405 nm, 7 days after inoculation
Description: The active substances were formulated separately as a stock solution in dimethyl sulfoxide (DMSO) at a concentration of 10 000 ppm. Use Example 2—Activity Against Pyrenophora teres (Net Blotch on Barley) in the Microtiter Plate Test The stock solutions were mixed according to the ratio, pipetted onto a micro titer plate (MTP) and diluted with water to the stated concentrations. A spore suspension of Pyrenophora teres in an aqueous biomalt solution was then added. The plates were placed in a water vapor-saturated chamber at a temperature of 18° C. Using an absorption photometer, the MTPs were measured at 405 nm 7 days after the inoculation. The measured parameters were compared to the growth of the active compound-free control variant (100%) and the fungus-free and active compound-free blank value to determine the relative growth in % of the pathogens in the respective active compounds. These percentages were converted into efficacies. The expected efficacies of active compound mixtures were determined using Colby's formula [R. S. Colby, “Calculating synergistic and antagonistic responses of herbicide combinations”, Weeds 15, 20-22 (1967)] and compared with the observed efficacies.

| SMILES | Observed efficacy (%) (Botrytis cinerea; 0.25 ppm) | Observed efficacy (%) (Pyrenophora teres; 0.063 ppm) | Observed efficacy (%) (Pyrenophora teres; 0.25 ppm) | Observed efficacy (%) (Botrytis cinerea; 16 ppm) | Observed efficacy (%) (Pyrenophora teres; 1 ppm) |
| --- | --- | --- | --- | --- | --- |
| O=C(NCCc1ncc(C(F)(F)F)cc1Cl)c1ccccc1C(F)(F)F [Fluopyram] | 18 | 16 | 60 |  |  |
| COc1cc(C)c(C(=O)c2c(OC)ccc(Br)c2C)c(OC)c1OC [Metrafenon, Metrafenone] |  | 3 |  | 10 | 18 |
